# Article PMC12328707, “Potassium binding by carbonyl clusters, halophilic adaptation and catalysis of Haloferax mediterranei D-2-hydroxyacid dehydrogenase” (Communications Biology, 2025)
# Target: T1, D2HDH (Haloferax mediterranei, UniProt Q2VEQ7)
# T1 construct: gene ddh; homodimer (~66 kDa; 79 kDa by gel filtration); residues 1-308; no tag mentioned
# Test: X-ray crystal structure, […] Å
# Type: binding
# Details: formed by turnover in the crystallisation drop; NADP+ bound; modelled in subunit B as 2:1 mixture of 2-ketohexanoic acid and hydroxy acid
# T1 sequence (Q2VEQ7 whole entry, the tested form may be a part): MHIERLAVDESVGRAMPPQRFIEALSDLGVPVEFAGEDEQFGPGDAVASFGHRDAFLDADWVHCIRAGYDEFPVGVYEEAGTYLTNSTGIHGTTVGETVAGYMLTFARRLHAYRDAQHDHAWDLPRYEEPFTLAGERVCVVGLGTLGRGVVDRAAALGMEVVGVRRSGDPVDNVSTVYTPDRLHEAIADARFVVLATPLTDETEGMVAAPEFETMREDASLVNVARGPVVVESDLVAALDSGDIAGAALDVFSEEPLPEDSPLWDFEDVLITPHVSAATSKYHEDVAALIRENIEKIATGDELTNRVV
smiles,measurement,value
CCCC[C@@H](O)C(=O)O [D-2-hydroxyhexanoic acid],"X-ray crystal structure, 1.57 Å",D-2-hydroxyhexanoic acid (beige carbons) bound to the active site of the D2HDH/NADP^+ complex
